Patent publication US20170209483A1, “ANTIBIOTIC ACTIVITY OF IRON SEQUESTERING POLYMERS” (UNIVERSITY OF KANSAS, priority 2014, published 2017)
Structures can show the parent of a compound that is named as a salt.

Assays:
P. aeruginosa = details: concentrations used reflect reported MICs; cited from earlier work
[1] = tested on: Pseudomonas aeruginosa strain PA01 wild type; test: PAI-DHBA as an adjuvant to conventional antibiotics on bacterial growth; assay type: cell-based; details: Ciprofloxacin 1 μg/mL added at 5 h, read at 9 h, versus control
[2] = in vivo; cited from earlier work
[3] = tested on: Pseudomonas aeruginosa strain PA01 wild type; test: Comparison to traditional iron chelating agents, bacterial counts; assay type: cell-based; details: EDTA or HBED 500 μM, PAI-DHBA 20 mg, added at inoculation; 5, 6 and 12 h

Which “Reported MIC” value (P. aeruginosa) does the source give for `O=C(O)c1cn(C2CC2)c2cc(N3CCNCC3)c(F)cc2c1=O` [Ciprofloxacin, Ciprofloxacin hydrochloride] here?
Its value is 1 µg/mL.

And the “Overall reduction in CFU/mL” value [1]?
The value was “approximately 4 log units”.

With `CC(=O)N(O)CCCCCNC(=O)CCC(=O)N(O)CCCCCNC(=O)CCC(=O)N(O)CCCCCN` [DFO, deferoxamine] as the compound, how does the Plasma half-life [2] read?
Its Plasma half-life is roughly 5.5 min.

Which “Bacterial count (CFU/mL) versus control (no chelator)” value [3] does the source give for `O=C(O)CN(CCN(CC(=O)O)Cc1ccccc1O)Cc1ccccc1O` [HBED, N,N-bis (2-hydroxybenzyl) ethylenediamine-N,N-diacetic acid] here?
Its value is “small, transient difference”.

With Gentamicin sulfate as the compound, how does the “Reported MIC” value (P. aeruginosa) read?
The value was 24 µg/mL.

With “sodium ethylene diamine tetraacetate [EDTA]” as the compound, how does the “Bacterial count (CFU/mL) versus control (no chelator)” value [3] read?
The value was “small, transient difference”.
